Measurements: ChEMBL document CHEMBL2440118, “Triazole-dithiocarbamate based selective lysine specific demethylase 1 (LSD1) inactivators inhibit gastric cancer cell growth, invasion, and migration” (J Med Chem, 2013)
Active and inactive are the calls of the source.

Tests used:
[1] = target: T1, Amine oxidase [flavin-containing] B (Homo sapiens, UniProt P27338)
T1 sequence (P27338 whole entry): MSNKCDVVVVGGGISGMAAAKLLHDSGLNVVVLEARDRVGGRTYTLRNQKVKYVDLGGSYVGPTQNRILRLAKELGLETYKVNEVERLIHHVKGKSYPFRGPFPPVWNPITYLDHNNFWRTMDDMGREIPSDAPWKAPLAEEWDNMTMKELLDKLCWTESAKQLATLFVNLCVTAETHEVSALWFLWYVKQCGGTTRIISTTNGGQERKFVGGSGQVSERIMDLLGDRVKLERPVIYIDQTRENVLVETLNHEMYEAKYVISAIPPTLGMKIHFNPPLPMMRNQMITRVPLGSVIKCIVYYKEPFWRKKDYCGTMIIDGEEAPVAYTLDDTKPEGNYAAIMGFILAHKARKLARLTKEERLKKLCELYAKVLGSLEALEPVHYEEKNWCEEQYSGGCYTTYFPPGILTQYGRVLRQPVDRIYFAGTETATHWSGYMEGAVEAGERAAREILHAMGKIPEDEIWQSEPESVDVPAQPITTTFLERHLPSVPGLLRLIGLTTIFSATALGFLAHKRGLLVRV

[2] = target: Lysine-specific histone demethylase 1A (Homo sapiens) (UniProt O60341); conditions: 312.5 uM
[3] = target: Lysine-specific histone demethylase 1A (Homo sapiens) (UniProt O60341); assay: Inhibition of LSD1 in human MGC803 cells assessed as elevation of E-cadherin protein expression at 0.02 to 1 uM after 48 hrs by Western blotting analysis relative to control; type: cell-based; conditions: MGC-803
[4] = target: Lysine-specific histone demethylase 1A (Homo sapiens) (UniProt O60341); conditions: 0.5 to […]
[5] = target: Lysine-specific histone demethylase 1A (Homo sapiens) (UniProt O60341); assay: Inhibition of LSD1-snail interaction in human MGC803 cells at 0.25 uM after 48 hrs by immunoprecipitation assay; type: cell-based; conditions: MGC-803
[6] = target: Lysine-specific histone demethylase 1A (Homo sapiens) (UniProt O60341)
[7] = target: Lysine-specific histone demethylase 1A (Homo sapiens) (UniProt O60341); remark: listed apart in the source
[8] = target: T2, Amine oxidase [flavin-containing] A (Homo sapiens, UniProt P21397)
T2 sequence (P21397 whole entry): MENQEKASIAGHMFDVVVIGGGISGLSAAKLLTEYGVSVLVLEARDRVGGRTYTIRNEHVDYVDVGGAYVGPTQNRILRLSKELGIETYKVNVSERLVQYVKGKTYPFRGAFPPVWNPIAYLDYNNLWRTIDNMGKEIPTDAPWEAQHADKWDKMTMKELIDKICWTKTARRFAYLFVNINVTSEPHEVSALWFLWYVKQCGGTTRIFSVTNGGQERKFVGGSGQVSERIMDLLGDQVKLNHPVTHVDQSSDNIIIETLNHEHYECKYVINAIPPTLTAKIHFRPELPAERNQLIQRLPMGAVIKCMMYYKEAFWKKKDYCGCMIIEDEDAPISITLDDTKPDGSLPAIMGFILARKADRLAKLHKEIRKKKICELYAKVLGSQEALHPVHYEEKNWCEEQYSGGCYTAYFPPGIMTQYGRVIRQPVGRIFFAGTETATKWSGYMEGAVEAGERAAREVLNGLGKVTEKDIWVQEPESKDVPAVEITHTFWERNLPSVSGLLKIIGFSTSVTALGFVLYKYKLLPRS

[9] = target: Lysine-specific histone demethylase 1A (Homo sapiens) (UniProt O60341); conditions: 0.5 to […]; remark: listed apart in the source
[10] = target: Lysine-specific histone demethylase 1A (Homo sapiens) (UniProt O60341); conditions: 0.5 to […]; remark: listed apart in the source

Cc1ccc(Cn2cc(CSC(=S)N3CCN(C(=O)OC(C)(C)C)CC3)nn2)cc1
> 1250 µM: IC50 [1] | IC50 [8]
active: inhibition [2] | inhibition [3] | inhibition [4] | inhibition [5] | inhibition [6] | inhibition [7] | inhibition [9] | inhibition [10]

CC(C)(C)OC(=O)N1CCN(C(=S)SCc2cn(Cc3ccccc3F)nn2)CC1
791 µM: IC50 [1]
> 1250 µM: IC50 [8]
